Test results: ChEMBL document CHEMBL1201862, “PubChem BioAssay data set” (2004)
The source made the active and inactive calls.

How the values were obtained:
[1] = L6 myocyte viability loss – cell-based, plate reader, cherry-pick, cytotoxicity control, dose response (AID 651896); type: functional
[2] = anti-trypanosomal activity in BESM host cells – imaging, CA-I/72 strain, bovine embryo skeletal muscle, dry powder, dose response (AID 651885); type: functional, cell-based
[3] = Inhibition of Plasmodium falciparum NF54 Measured in Cell-Based System Using Plate Reader - 2138-11_Inhibitor_Dose_CherryPick_Activity.; type: functional
[4] = Trypanosoma cruzi replication inhibitors in host cells – cell-based, plate reader, dry powder samples, dose response (AID 651845); type: functional
[5] = intracellular Trypanosoma cruzi inhibitors in host cells – cell-based, plate reader, cherry-pick samples, set 3, dose response (AID 651818); type: functional;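 note: compounds incubated with infected cells for about four days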
[6] = Inhibition of T. cruzi Tulahuen strain amastigotes in L-6 muscle cells Measured in Cell-Based and Microorganism Combination System Using Plate Reader - 2138-03_Inhibitor_Dose_CherryPick_Activity.; type: functional; settings: Rattus norvegicus, L6
[7] = antileishmanial activity on axenic amastigotes – plate reader, cherry pick, dose response (AID 651891); type: functional, cell-based; settings: Leishmania donovani
[8] = African trypanosome bloodstream form growth inhibition – STIB900 strain, plate reader, cherry pick, dose response (AID 651893); type: functional, cell-based, Trypanosoma brucei rhodesiense; settings: Trypanosoma brucei
[9] = T. cruzi growth inhibition in host cells, dose response, cell-based, plate reader, dry powder, set 2 (AID 652275); type: functional
[10] = target: T1, Mannose-6-phosphate isomerase (Homo sapiens, UniProt P34949); test: MPI inhibition at elevated mannose 6-phosphate – biochemical, fluorescence intensity, high mannose 6-phosphate, primary screen (AID 1220)
T1 sequence (P34949 whole entry): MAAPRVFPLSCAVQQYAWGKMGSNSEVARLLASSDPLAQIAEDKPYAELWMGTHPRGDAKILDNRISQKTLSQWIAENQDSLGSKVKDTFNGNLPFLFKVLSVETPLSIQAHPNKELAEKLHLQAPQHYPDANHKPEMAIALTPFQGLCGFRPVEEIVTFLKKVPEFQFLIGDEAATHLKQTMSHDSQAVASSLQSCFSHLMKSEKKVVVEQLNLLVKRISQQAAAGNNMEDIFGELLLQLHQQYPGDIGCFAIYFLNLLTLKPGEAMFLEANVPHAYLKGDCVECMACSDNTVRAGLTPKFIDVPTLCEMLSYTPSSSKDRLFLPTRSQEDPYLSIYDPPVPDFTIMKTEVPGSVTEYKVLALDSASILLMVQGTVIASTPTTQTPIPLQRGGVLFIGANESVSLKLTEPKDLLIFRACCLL

Heat shock protein HSP90 = Heat shock protein HSP90 (Homo sapiens, UniProt P07900+P08238); test: Hsp90 blockade concentration-response – dose response (AID 712); type: functional
[11] = Dd2 parasite growth inhibition in erythrocytes – SYBR Green, dry powder samples, set 9, dose response (AID 1159568); type: functional, cell-based
[12] = growth inhibition of yeast DHODH-expressing 3D7 parasites – SYBR Green, dry powder samples, dose response (AID 1159570); type: functional, cell-based;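 note: parasite growth measured after 72 hours of compound exposure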
[13] = growth inhibition of PfATP4-mutant resistant parasites – NITD609-resistant line, SYBR Green, dry powder, dose response (AID 1159571); type: functional, cell-based;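 note: parasites synchronized at ring stage by sorbitol before testing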
[14] = toxicity to human HepG2 hepatoma cells – cell-based, plate reader, dry powder samples, cytotoxicity control, dose response (AID 1159569); type: functional;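 note: inhibitor potency with signal falling toward the positive control level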
[15] = P. falciparum Dd2 growth inhibitors, dose response, SYBR Green, cherry-picked samples (AID 1159567); type: functional, cell-based
[16] = Dd2 malaria parasite growth inhibition potency – SYBR Green, dry powder samples, dose response (AID 1159566); type: functional, cell-based;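 note: potency for growth inhibition with lower SYBR green DNA signal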
Cytochrome P450 2D6 = Cytochrome P450 2D6 (Homo sapiens, UniProt P10635);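 note: CYP2D6 member of a cytochrome P450 panel assay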
Cytochrome P450 2D6, sequence (P10635 whole entry): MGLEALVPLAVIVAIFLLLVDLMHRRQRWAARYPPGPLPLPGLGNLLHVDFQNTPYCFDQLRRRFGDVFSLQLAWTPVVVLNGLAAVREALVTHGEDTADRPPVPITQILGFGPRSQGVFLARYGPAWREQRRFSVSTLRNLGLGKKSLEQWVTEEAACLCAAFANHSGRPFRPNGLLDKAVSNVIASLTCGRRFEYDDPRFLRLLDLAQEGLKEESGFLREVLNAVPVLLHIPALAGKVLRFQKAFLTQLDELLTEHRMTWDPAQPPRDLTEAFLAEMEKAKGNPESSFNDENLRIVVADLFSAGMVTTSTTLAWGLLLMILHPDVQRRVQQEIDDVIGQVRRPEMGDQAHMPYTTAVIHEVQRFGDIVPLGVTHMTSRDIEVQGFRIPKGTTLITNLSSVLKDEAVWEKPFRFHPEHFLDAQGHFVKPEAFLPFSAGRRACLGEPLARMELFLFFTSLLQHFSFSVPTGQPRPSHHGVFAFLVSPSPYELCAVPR

Cytochrome P450 2C19 [17] = target: T2, Cytochrome P450 2C19 (Homo sapiens, UniProt P33261); test: Cytochrome panel assay with activity outcomes. Panel member name: p450-cyp2c19 Compounds with AC50 equal or less than 10 uM are considered active; type: functional; settings: read-out: AC50
T2 sequence (P33261 whole entry): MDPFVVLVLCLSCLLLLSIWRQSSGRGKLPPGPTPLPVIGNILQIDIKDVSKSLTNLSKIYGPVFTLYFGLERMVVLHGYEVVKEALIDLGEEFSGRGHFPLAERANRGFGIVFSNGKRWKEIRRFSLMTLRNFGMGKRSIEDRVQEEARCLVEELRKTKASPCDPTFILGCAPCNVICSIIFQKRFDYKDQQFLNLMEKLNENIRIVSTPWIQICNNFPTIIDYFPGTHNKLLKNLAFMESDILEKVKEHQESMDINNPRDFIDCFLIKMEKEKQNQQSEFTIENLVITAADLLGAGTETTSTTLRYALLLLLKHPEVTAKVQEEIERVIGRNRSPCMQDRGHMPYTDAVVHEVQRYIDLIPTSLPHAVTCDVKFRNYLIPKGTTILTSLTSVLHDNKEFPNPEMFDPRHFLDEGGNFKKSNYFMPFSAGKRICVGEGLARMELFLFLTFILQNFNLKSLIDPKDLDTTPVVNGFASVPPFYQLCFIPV

Cytochrome P450 2C19 [18] = target: T2, Cytochrome P450 2C19; test: qHTS Assay for Inhibitors and Substrates of Cytochrome P450 2C19. [Related pubchem assays: 410 ]; type: ADME; settings: read-out: Potency
[19] = glucagon-like peptide-1 release potency in STC-1, concentration-response, half-maximal inhibitory concentration in the STC-1 line (AID 1117345); type: functional, cell-based
[20] = Potency on glucagon-like peptide 1 release, dose-response in NCI-H716 cell line, half maximal inhibitory concentration (AID 1117344); type: functional, cell-based
[21] = rise of 2N DNA cells, HeLa – IC50, dose response (AID 1117349); type: functional, cell-based
[22] = rise of 4N DNA cells, HeLa – IC50, dose response (AID 1117351); type: functional, cell-based
cells = type: functional, cell-based; settings: INS-1E
[23] = IC50 of insulin release inhibition, rat insulinoma INS-1E line, 5 mM glucose, cell-based (AID 1117331); type: functional

SMILES: COc1ccc(CN(C)C[C@H]2Oc3c(NC(=O)c4ccncc4)cccc3C(=O)N([C@@H](C)CO)C[C@@H]2C)cc1
- IC50 [1]: > 100 µM (inactive)
- IC50 [2]: 478 nM (active)
- IC50 [3]: 8.41 µM (inactive)
- AC50 [4]: 127 nM (active)
- AC50 [5]: 250 nM (active)
- IC50 [6]: 8.41 µM (inactive)
- IC50 [7]: > 100 µM (inactive)
- IC50 [8]: 15.4 µM (inactive)
- AC50 [9]: 127 nM (active)

SMILES: CCOC(=O)c1c(C)oc2c1c(/C=N/CC1CCCO1)c(O)c1ccccc12 (stereo unspecified)
- IC50 [10]: > 50 µM (not active)
- IC50 (Heat shock protein HSP90): 13.307 µM

SMILES: O=C(Nc1ccccc1F)N1CCCCN2[C@H](CO)[C@@H](c3ccc(/C=C/c4ccccc4)cc3)[C@@H]2C1
- AC50 [11]: 6.45 µM (active)

SMILES: C[C@H](CO)N1C[C@H](C)[C@H](CN(C)S(=O)(=O)c2ccc(F)cc2)OCc2ccccc2-c2c(n(C)c3ccccc23)C1=O
- AC50 [12]: 572 nM (active)
- AC50 [13]: 481 nM (active)
- AC50 [14]: 7.35 µM (active)
- AC50 [15]: 1.1 µM (active)
- AC50 [16]: 360 nM (active)

SMILES: O=[N+]([O-])c1cccc2c(Br)n[nH]c12
- AC50 (Cytochrome P450 2D6): 251 nM (inconclusive)
- AC50 (Cytochrome P450 2C19 [17]): 251 nM (inconclusive)
- AC50 (Cytochrome P450 2C19 [18]): 1 nM (inconclusive)

SMILES: c1ccc2sc(SSc3nc4ccccc4s3)nc2c1 [BENZOTHIAZYL DISULFIDE]
- IC50 [19]: 5.58 µM (inactive)
- IC50 [20]: 9.23 µM (inactive)

SMILES: COC(=O)Nc1nc2cc(C(=O)c3ccccc3)ccc2[nH]1 [MEBENDAZOLE]
- IC50 [21]: 76.1 nM (active)
- IC50 [22]: 80 nM (active)

SMILES: Cc1ccc(S(=O)(=O)NC(=O)NN2CCCCCC2)cc1 [TOLAZAMIDE]
- IC50 (cells): > 33.3 µM (inactive)
- IC50 [23]: 6.98 µM (inactive)
